Laboratory results as given in US7704508B2, “Babesia subtilisin” (New York Blood Center, priority 2007, dated 2010).
Starred links: 1 amine or outer side, 2 acyl side, 3 side chain; linkers in the order of their positions; H or OH if unused. Non-standard residues stand in square brackets, D forms with d. Residues, ends and D or L forms follow the SMILES beside them. ξ: configuration not given here. *: point of attachment. Sta = CC(C)C[C@H](N)[C@@H](O)CC(=O)O; Isovaleryl = CC(C)CC(=O)*; ξF = NC(Cc1ccccc1)C(=O)O; CO = O=C([*:1])[*:2]

What was measured:
B. divergens [1] = assay: Effect of protease inhibitors on B. divergens erythrocyte invasion (parasitemia by YOYO-1 flow cytometry, T10); format: cell-based; conditions: for inhibition of invasion: 50 and 100 μM, relative to control; for inhibition at 50 µM / inhibition at 100 µM: Erythrocyte
Experimental: (§1) Parasitemia for B. divergens was assessed in human RBCs using a modification of the methods of Barkan et al. (Int. J. Parasitol. 30:649-53, 2000) and Jimenez-Diaz et al. (Cytometry A 67:27-36, 2005), both of which are incorporated by reference herein for all they contain regarding assessment of parasitemia. DNA content was measured after staining with YOYO-1 (a high affinity cell-impermeant dye that increases green fluorescence by 1000-fold when bound to dsDNA) observed infected erythrocytes compared with non-infected human erythrocytes for B. divergens.
(§2) To assess the effect of various protease inhibitors, parasitemia was assessed in 180 parasite samples taken at different time points (0 and after 10, 24, 48 and 72 h). In parallel with the evaluation of the parasitemia by FACS (fluorescence activated cell sorting), 60 random parasite samples were analyzed by light microscopy using Giemsa-stained thin blood smears, with 500-1000 RBCs being counted for each smear. […] Integration of the numbers of events represented in the right peak provides a direct estimate of the parasitemia, where one infected cell is one event.
(§3) Protease inhibitors were tested for their ability to inhibit the invasion and growth of B. divergens in vitro.
(§4) The effects of EGTA, a chelating agent capable of binding metal ions including Ca^2+, on the invasion and growth of B. divergens was tested. EGTA cannot permeate the biological membrane of cells so its effects are only on the chelation of extracellular ions. As many serine proteases require Ca^2+ for activity, EGTA also functions as a serine protease inhibitor.

B. divergens [2] = assay: Effect of protease inhibitors on B. divergens growth in culture (parasitemia by YOYO-1 flow cytometry, T72); format: cell-based; conditions: for inhibition of growth / decrease of parasitemia after 72 h: 50 and 100 μM, compared to control; for Growth T72 50 μM (inhibition) / Growth T72 100 μM (inhibition) / inhibition at 50 µM / inhibition at 100 µM: T72
Experimental: as §1, §2, §3, §4

BdSUB-1 = assay: Effect of brefeldin A on BdSUB-1 processing during secretory transport (western blot); format: cell-based, B. divergens; conditions: 40 μg/ml BFA in methanol, 1 hour, 37° C., western blot with PfSUB1m antibodies
Experimental: Monitoring the effect of brefeldin A. The effects of brefeldin A (BFA, Sigma) on BdSUB-1 processing during secretory transport was monitored using ^35S-radiolabeled B. divergens cultures. The drug was prepared as a stock solution in methanol at 1 mg ml^−1 and then added to parasite cultures to a final concentration of 40 μg ml^−1 BFA. Methanol was added to the control cultures and cells were cultured at 37° C. in a […], 5% nitrogen and 5% oxygen for 1 hour. Samples were washed in PBS, lysed in saponin buffer and analyzed by western blot using the anti-PfSUB1m antibodies.
BdSUB-1 undergoes post-translational processing during secretory transport. […] In order to examine whether BdSUB-1 undergoes intracellular post-translational processing steps within the parasite secretory pathway, brefeldin A (BFA) was employed, which blocks secretory transport of proteins from the endoplasmic reticulum (ER) to the Golgi apparatus. Western-blot analysis was performed on parasite lysates that were obtained from cultures grown in the presence or absence of BFA, using anti-PfSUB1m antibodies. […] Thus, BdSUB-1 is initially synthesized as a large precursor protein of ˜78 kDA and cleavage of the signal peptide results in the formation of p75, which is the largest detectable protein seen in the assays. This p75 is then processed to p55, which then gets converted to p48 in the Golgi. […]

For `O=C(O)CN(CCOCCOCCN(CC(=O)O)CC(=O)O)CC(=O)O` [EGTA, ethylene glycol tetraacetic acid], the “Invasion T10 1 mM (inhibition)” value (B. divergens [1]; 1 mM, T10) was 48.0 ± 3.1%, the “Invasion T10 3 mM (inhibition)” value (B. divergens [1]; 3 mM, T10) was 52.0 ± 2.6% and the “reversal of inhibition of invasion and growth by Ca2+” value (B. divergens [1]; Ca2+ added in the same concentration as EGTA) was “completely reversed”. For the same compound, the “percentage of inhibition on invasion” value (B. divergens [1]; EGTA 1, 2 and 3 mM) was 50%, the “Growth T72 1 mM (inhibition)” value (B. divergens [2]) was 82.0 ± 0.4% and the “Growth T72 3 mM (inhibition)” value (B. divergens [2]) was 83.0 ± 0.5%. For the same compound, the “growth of the parasite after 72 h, lower than the control” value (B. divergens [2]) was 83%.
For `Cc1ccc(S(=O)(=O)N[C@@H](CCCCN)C(=O)CCl)cc1` [TLCK, N-α-tosyl-L-lysine chloromethyl ketone], the “Invasion T10 50 μM (inhibition)” value (B. divergens [1]; T10) was 64.0 ± 3.1%, the “Invasion T10 100 μM (inhibition)” value (B. divergens [1]; T10) was 60.0 ± 2.0% and the “inhibition of invasion” value (B. divergens [1]) was about 60%. The “Growth T72 50 μM (inhibition)” value (B. divergens [2]) was 92.1 ± 3.0%, the “Growth T72 100 μM (inhibition)” value (B. divergens [2]) was 94.1 ± 0.9% and the “inhibition of growth / decrease of parasitemia after 72 h” value (B. divergens [2]) was “approximately 90%”. For the same compound, the “morphology of the parasites during invasion and growth inhibition assay” value (B. divergens [2]; microscopy of treated cultures) was “no alteration in the morphology of the parasites”.
`O=S(=O)(F)Cc1ccccc1` [PMSF, phenylmethylsulfonyl fluoride] was tested, and the “Invasion T10 50 μM (inhibition)” value (B. divergens [1]; T10) was 28.0 ± 8.9%, the “Invasion T10 100 μM (inhibition)” value (B. divergens [1]; T10) was 35.0 ± 18.0% and the “Growth T72 50 μM (inhibition)” value (B. divergens [2]) was 45.0 ± 5.2%. The “Growth T72 100 μM (inhibition)” value (B. divergens [2]) was 46.7 ± 3.3%.
`CC(C)[C@H](NC(=O)[C@H](CCCNC(=N)N)NC(=O)NC(Cc1ccccc1)C(=O)O)C(=O)N[C@H](C=O)CCCNC(=N)N` (stereo partly drawn) [Antipain, (1-carboxy-2-phenylethyl)carbamoyl-L-arginyl-L-valylargininal] ({ξF-CO}-Arg-Val-Arg-aldehyde) was tested, and the inhibition at 50 µM (B. divergens [1]; T10) was 33 ± 6.5%, the inhibition at 100 µM (B. divergens [1]; T10) was 37.7 ± 14.1% and the inhibition at 50 µM (B. divergens [2]) was 15 ± 8.4%. For the same compound, the inhibition at 100 µM (B. divergens [2]) was 16 ± 8.5%.
In the case of `C[C@H]1CCC/C=C/[C@@H]2C[C@H](O)C[C@H]2[C@H](O)/C=C/C(=O)O1` [BFA, brefeldin A], the “BdSUB-1 processing / secretory transport” value (BdSUB-1) is reported as “blocked the secretory transport of BdSUB-1 from the ER to the Golgi apparatus”.
`NCCc1ccc(S(=O)(=O)F)cc1` [ABSF, 4-(2-aminoethyl)benzenesulfonyl fluoride] was tested, and the “Invasion T10 50 μM (inhibition)” value (B. divergens [1]; T10) was 3.3 ± 6.8%, the “Invasion T10 100 μM (inhibition)” value (B. divergens [1]; T10) was 34.0 ± 9.0% and the “Growth T72 50 μM (inhibition)” value (B. divergens [2]) was 8.8 ± 7.4%. For the same compound, the “Growth T72 100 μM (inhibition)” value (B. divergens [2]) was 28.0 ± 5.0%.
In the case of `CC(C)CC(=O)N[C@H](C(=O)N[C@H](C(=O)N[C@@H](CC(C)C)[C@@H](O)CC(=O)N[C@@H](C)C(=O)N[C@@H](CC(C)C)[C@@H](O)CC(=O)O)C(C)C)C(C)C` [Pepstatin, pepstatin] (Isovaleryl-VV[Sta]A[Sta]-OH), the inhibition at 50 µM (B. divergens [1]; T10) is reported as 17 ± 6.4%, the inhibition at 100 µM (B. divergens [1]; T10) is reported as 2 ± 0.8% and the inhibition at 50 µM (B. divergens [2]) is reported as 9.1 ± 3.1%. The inhibition at 100 µM (B. divergens [2]) was 16 ± 9.2%.
With `O=c1oc(Cl)c(Cl)c2ccccc12` [3,4 DCI] the “Invasion T10 50 μM (inhibition)” value (B. divergens [1]; T10) was 38.0 ± 2.0%, the “Invasion T10 100 μM (inhibition)” value (B. divergens [1]; T10) was 43.0 ± 1.2% and the “inhibition of invasion” value (B. divergens [1]) was 40%. For the same compound, the “Growth T72 50 μM (inhibition)” value (B. divergens [2]) was 70.7 ± 1.4%, the “Growth T72 100 μM (inhibition)” value (B. divergens [2]) was 76.0 ± 2.3% and the “inhibition of growth / decrease of parasitemia after 72 h” value (B. divergens [2]) was 76%.
